Test results taken from PMC6001238, “Iterative Chemical Engineering of Vancomycin Leads to Novel Vancomycin Analogs With a High in Vitro Therapeutic Index” (Frontiers in Microbiology, 2018).
≈ marks a conversion by molar mass, not a printed value. Like-named read-outs stand apart in the source and are kept apart here.

How the values were obtained:
E. faecalis VSE 1 = experiment: MIC, broth microdilution, vancomycin-sensitive E. faecalis (VSE 1); type: cell-based, Enterococcus faecalis; settings: for MIC: read-out: MIC; for MIC-fold improvement vs. vancomycin: VSE 1
Outline: (§1)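 MIC values come from broth microdilution run to CLSI susceptibility-testing standards. Ultrapure water and uninoculated broth served as controls. In one series, vancomycin at a final 10 μM was co-dosed with the analogue or comparator antibiotic.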

E. faecalis VRE 37 = experiment: MIC, broth microdilution, vancomycin-resistant E. faecalis VRE 37 (VanA); type: cell-based, Enterococcus faecalis; settings: for MIC: Enterococcus faecalis VRE 37 (vancomycin-resistant), read-out: MIC
Outline: as §1

[1] = test system: human cervix carcinoma (HeLa) cells; experiment: Cytostatic activity, HeLa cell proliferation; type: cell-based; settings: mean ± SD of three experiments; highest concentration tested 250 µM; 4 days; read-out: Toxicity (IC50) HeLa
Outline: (§2)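 Coulter counter cell counts after 37°C culture with compound; IC50 = concentration giving 50% growth inhibition vs negative control. Incubation: L1210 2 d, CEM 3 d, HeLa 4 d. Suspension density before mixing with an equal volume of dilution: 300,000–500,000 cells/mL.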

E. faecalis VRE 29 = experiment: MIC, broth microdilution, vancomycin-resistant E. faecalis VRE 29 (VanA); type: cell-based, Enterococcus faecalis; settings: for MIC: Enterococcus faecalis VRE 29 (vancomycin-resistant), read-out: MIC; for MIC-fold improvement vs. vancomycin: VRE 29, ratio of MIC of vancomycin and MIC of analogue
Outline: as §1

[2] = test system: Clostridium difficile ATJ ribotype 014/20; experiment: MIC, plate drop assay, C. difficile ATJ ribotype 014/20; type: cell-based; settings: C. difficile ATJ ribotype 014/20
Outline: (§3)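 Lawns of each strain were made in soft BHI agar (0.4%) supplemented with CaCl2⋅2H2O and MgCl2⋅6H2O. Twofold compound dilutions (10 μL) were spotted, air-dried and incubated overnight at 37°C anaerobically; MIC read as cleared spots, in triplicate with water as negative control.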

[3] = test system: L1210, CEM and HeLa cell lines; experiment: Cytostatic activity, average or summary over L1210, CEM and HeLa; type: cell-based
Outline: as §2

MRSA KS2 = experiment: MIC, broth microdilution, MRSA KS2; type: cell-based, Staphylococcus aureus
Outline: as §1

B. subtilis PSB3 = experiment: MIC, broth microdilution, B. subtilis PSB3; type: cell-based, Bacillus subtilis
Method: (§4) The minimum inhibitory concentration (MIC) was determined using the broth microdilution method according to the antimicrobial susceptibility testing standards of the clinical and laboratory standards institute ([Clinical and Laboratory Standards Institute [CLSI], 2012]). Ultrapure water and non-inoculated broth were used as controls. In one case, a final concentration of 10 μM vancomycin was included with the vancomycin analog or control antibiotic.

MRSA KS6 = experiment: MIC, broth microdilution, MRSA KS6; type: cell-based, Staphylococcus aureus
Outline: as §1

MRSA KS1 = experiment: MIC, broth microdilution, MRSA KS1; type: cell-based, Staphylococcus aureus
Outline: as §1

E. faecalis VRE 53 = experiment: MIC, broth microdilution, vancomycin-resistant E. faecalis VRE 53 (VanA); type: cell-based, Enterococcus faecalis; settings: for MIC: read-out: MIC; for MIC-fold improvement vs. vancomycin: VRE 53
Outline: as §1

[4] = test system: Clostridium difficile AIU ribotype 027; experiment: MIC, plate drop assay, C. difficile AIU ribotype 027; type: cell-based; settings: C. difficile AIU ribotype 027
Outline: as §3

[5] = test system: human T-lymphocyte (CEM) cells; experiment: Cytostatic activity, CEM cell proliferation; type: cell-based; settings: mean ± SD of three experiments; highest concentration tested 250 µM; 3 days; read-out: Toxicity (IC50) CEM
Outline: as §2

MRSA KS89 = experiment: MIC, broth microdilution, MRSA KS89; type: cell-based, Staphylococcus aureus; settings: for MIC-fold improvement vs. vancomycin: MRSA KS8, ratio of MIC of vancomycin and MIC of analogue; for MIC: Staphylococcus aureus MRSA KS8, read-out: MIC
Outline: as §1

S. aureus VISA/HIP5827 = experiment: MIC, broth microdilution, vancomycin-intermediate S. aureus VISA HIP5827; type: cell-based, Staphylococcus aureus; settings: for MIC: Staphylococcus aureus VISA/HIP5827, read-out: MIC; for MIC-fold improvement vs. vancomycin: VISA/HIP5827, ratio of MIC of vancomycin and MIC of analogue
Outline: as §1

[6] = test system: S. aureus VSSA (ATCC 6538); experiment: MIC, broth microdilution, vancomycin-sensitive S. aureus (VSSA/MSSA, ATCC 6538); type: cell-based, Staphylococcus aureus; settings: for MIC: Staphylococcus aureus VSSA, read-out: MIC; for MIC-fold improvement vs. vancomycin: VSSA, ratio of MIC of vancomycin and MIC of analogue
Outline: as §1

[7] = test system: Murine leukemia (L1210) cells; experiment: Cytostatic activity, L1210 cell proliferation; type: cell-based; settings: mean ± SD of three experiments; highest concentration tested 250 µM; 2 days; read-out: Toxicity (IC50) L1210
Outline: as §2

S. aureus VRSA = experiment: MIC, broth microdilution, vancomycin-resistant S. aureus (VRSA); type: cell-based, Staphylococcus aureus; settings: for MIC: Staphylococcus aureus VRSA, read-out: MIC; for MIC-fold improvement vs. vancomycin: VRSA, ratio of MIC of vancomycin and MIC of analogue
Outline: as §1

E. faecalis VRE 6 = experiment: MIC, broth microdilution, vancomycin-resistant E. faecalis VRE 6 (VanA); type: cell-based, Enterococcus faecalis; settings: for MIC: read-out: MIC; for MIC-fold improvement vs. vancomycin: VRE 6
Outline: as §1

E. coli XL-1 blue MRF' = experiment: MIC, broth microdilution, E. coli XL-1 blue MRF'; type: cell-based, Escherichia coli; settings: E. coli XL-1 blue MRF'
Method: as §4

VE 148 (VanB) = experiment: MIC, VanB-type VRE strain VE 148; type: cell-based, Enterococcus; settings: VE 148, VanB; read-out: MIC
Method: as §4

VE 157 (VanB) = experiment: MIC, VanB-type VRE strain VE 157; type: cell-based, Enterococcus; settings: VE 157, VanB; read-out: MIC
Method: as §4

VE 150 (VanB) = experiment: MIC, VanB-type VRE strain VE 150; type: cell-based, Enterococcus; settings: VE 150, VanB; read-out: MIC
Method: as §4

33 clinical VRE isolates = experiment: MIC against a set of 33 clinical VRE isolates (range, MIC50, TI); type: cell-based, Enterococcus faecalis
Method: as §4

MRSA = experiment: Minimum bactericidal concentration against MRSA; type: cell-based, Staphylococcus aureus
Method: Plates were incubated overnight at 37°C and colony growth was inspected.

VRE39 = experiment: MIC in the absence and presence of 10 µM vancomycin (vanA induction); type: cell-based, Enterococcus faecalis
Method: as §4

VE 149 (VanB) = experiment: MIC, VanB-type VRE strain VE 149; type: cell-based, Enterococcus; settings: VE 149, VanB; read-out: MIC
Method: as §4

VE 82 (VanC1) = experiment: MIC, VanC1-type VRE strain VE 82; type: cell-based, Enterococcus gallinarum; settings: VE 82, VanC1; read-out: MIC
Method: as §4

[8] = test system: 24 clinical MRSA isolates; experiment: MIC against a set of 24 clinical MRSA isolates (range, MIC50, TI); type: cell-based, Staphylococcus aureus
Method: as §4

VE 152 (VanB) = experiment: MIC, VanB-type VRE strain VE 152; type: cell-based, Enterococcus; settings: VE 152, VanB; read-out: MIC
Method: as §4

[9] = Enterococcus faecalis VSE 1 (vancomycin-sensitive)
[10] = ratio of MIC of vancomycin and MIC of analogue
[11] = average of L1210, CEM and HeLa, read-out: Toxicity (IC50) Average
[12] = Enterococcus faecalis VRE 53 (vancomycin-resistant)
[13] = Enterococcus faecalis VRE 6 (vancomycin-resistant)

SMILES	MIC (E. faecalis VSE 1; [9])	MIC-fold improvement vs. vancomycin (E. faecalis VSE 1; [10])	MIC (E. faecalis VRE 37)	IC50 [1]	MIC (E. faecalis VRE 29)	MIC-fold improvement vs. vancomycin (E. faecalis VRE 29)	IC50 [3, 11]	MIC (E. faecalis VRE 53; [12])	MIC-fold improvement vs. vancomycin (E. faecalis VRE 53; [10])	IC50 [5]	MIC-fold improvement vs. vancomycin (MRSA KS89)	MIC (MRSA KS89)	MIC (S. aureus VISA/HIP5827)	MIC-fold improvement vs. vancomycin (S. aureus VISA/HIP5827)	MIC [6]	MIC-fold improvement vs. vancomycin [6]	IC50 [7]	MIC (S. aureus VRSA)	MIC-fold improvement vs. vancomycin (S. aureus VRSA)	MIC (E. faecalis VRE 6; [13])	other results
C#Cc1ccc(NC(=O)CNC(=O)C2NC(=O)C3NC(=O)C(NC(=O)C4NC(=O)C(CC(N)=O)NC(=O)C(NC(=O)C(CC(C)C)NC)C(O)c5ccc(c(Cl)c5)Oc5cc4cc(c5OC4OC(CO)C(O)C(O)C4OC4CC(C)(N)C(O)C(C)O4)Oc4ccc(cc4Cl)C3O)c3ccc(O)c(c3)-c3c(O)cc(O)cc32)cc1 (centres unmarked) [Vanc-N]	0.10 µM (≈ 0.161 µg/mL)	16	25 µM (≈ 40.1 µg/mL)	> 250 µM	6.25 µM (≈ 10 µg/mL)	64	> 250 µM	6.25 µM (≈ 10 µg/mL)	64	> 250 µM	2	0.39 µM (≈ 0.626 µg/mL)	0.78 µM (≈ 1.25 µg/mL)	8	0.10 µM (≈ 0.161 µg/mL)	8	> 250 µM	1.56 µM (≈ 2.5 µg/mL)	64	3.13 µM (≈ 5.03 µg/mL)	MICvanc/MICi (E. faecalis VSE 1; E. faecalis VSE 1, ratio of MIC of vancomycin and MIC of analogue): 16; MIC (E. faecalis VSE 1; E. faecalis VSE 1): 0.10 µM (≈ 0.161 µg/mL); MIC-fold improvement vs. vancomycin [2]: 5.6; IC50 ([3]; summary over the three cell lines, read-out: IC50 (L1210, CEM, HeLa), depending on the cell line used): > 250 µM; MIC-fold improvement vs. vancomycin (MRSA KS2; MRSA KS2, ratio of MIC of vancomycin and MIC of analogue): 2; MIC (MRSA KS2; Staphylococcus aureus MRSA KS2, read-out: MIC): 0.39 µM (≈ 0.626 µg/mL); MIC (B. subtilis PSB3): 0.20 µM (≈ 0.321 µg/mL); MICvanc/MICi (B. subtilis PSB3; [10]): 2; MIC-fold improvement vs. vancomycin (MRSA KS6; MRSA KS6, ratio of MIC of vancomycin and MIC of analogue): 2; MIC (MRSA KS6; Staphylococcus aureus MRSA KS6, read-out: MIC): 0.39 µM (≈ 0.626 µg/mL); MIC-fold improvement vs. vancomycin (MRSA KS1; MRSA KS1, ratio of MIC of vancomycin and MIC of analogue): 4; MIC (MRSA KS1; Staphylococcus aureus MRSA KS1, read-out: MIC): 0.20 µM (≈ 0.321 µg/mL); MICvanc/MICi (E. faecalis VRE 53; E. faecalis VRE 53, ratio of MIC of vancomycin and MIC of analogue): 64; MIC (E. faecalis VRE 53; E. faecalis VRE 53): 6.25 µM (≈ 10 µg/mL); MIC-fold improvement vs. vancomycin [4]: 29; MICvanc/MICi (E. faecalis VRE 6; E. faecalis VRE 6, ratio of MIC of vancomycin and MIC of analogue): 64; MIC (E. faecalis VRE 6; E. faecalis VRE 6): 3.13 µM (≈ 5.03 µg/mL); MIC-fold improvement vs. vancomycin (E. faecalis VRE 6; [10]): 64; MIC (E. coli XL-1 blue MRF'): 50 µM (≈ 80.3 µg/mL); MICvanc/MICi (E. coli XL-1 blue MRF'; [10]): 2
CNC(CC(C)C)C(=O)NC1C(=O)NC(CC(N)=O)C(=O)NC2C(=O)NC3C(=O)NC(C(=O)NC(C(=O)NCC(=O)Nc4ccc(-c5ccccc5)cc4)c4cc(O)cc(O)c4-c4cc3ccc4O)C(O)c3ccc(c(Cl)c3)Oc3cc2cc(c3OC2OC(CO)C(O)C(O)C2OC2CC(C)(N)C(O)C(C)O2)Oc2ccc(cc2Cl)C1O (centres unmarked) [Vanc-83]	0.39 µM (≈ 0.646 µg/mL)	4	1.56 µM (≈ 2.59 µg/mL)	105 ± 27 µM	1.56 µM (≈ 2.59 µg/mL)	256	107 µM	1.56 µM (≈ 2.59 µg/mL)	256	37 ± 6 µM	4	0.20 µM (≈ 0.332 µg/mL)	1.56 µM (≈ 2.59 µg/mL)	4	0.20 µM (≈ 0.332 µg/mL)	4	179 ± 41 µM	0.39 µM (≈ 0.646 µg/mL)	256	0.78 µM (≈ 1.29 µg/mL)	MIC (VE 148 (VanB)): 1.56 µM (≈ 2.59 µg/mL); MIC-fold improvement vs. vancomycin (E. faecalis VRE 37; VRE 37, ratio of MIC of vancomycin and MIC of analogue): 256; MIC (VE 157 (VanB)): 1.56 µM (≈ 2.59 µg/mL); IC50 ([3]; average IC50 used for TI in Table S5, >250 entered as 250, read-out: IC50): 107 µM; MIC (VE 150 (VanB)): 1.56 µM (≈ 2.59 µg/mL); MIC Range (33 clinical VRE isolates; 33 clinical VRE isolates): 0.78 to 3.13 µM; TI (IC50/MIC50) (33 clinical VRE isolates; in vitro therapeutic index, VRE): 69; MBC relative to MIC (MRSA): MBC equaling their MIC values; MIC (VRE39; VRE39, 0 µM vancomycin): 1.56 µM; MIC (VRE39; VRE39, 10 μM vancomycin added): 3.13 µM; MIC (VE 149 (VanB)): 1.56 µM (≈ 2.59 µg/mL); MIC (VE 82 (VanC1)): 0.78 µM (≈ 1.29 µg/mL); MIC-fold improvement vs. vancomycin (E. faecalis VRE 6; [10]): 256; MIC Range ([8]; 24 clinical MRSA isolates): 0.10 to 0.78 µM; TI (IC50/MIC50) ([8]; in vitro therapeutic index, MRSA): 535; MIC50 ([8]; median MIC, 24 clinical MRSA isolates, read-out: MIC50): 0.20 µM (≈ 0.332 µg/mL); MIC (VE 152 (VanB)): 1.56 µM (≈ 2.59 µg/mL)
